Test results as given in article PMC3756485 (The Biochemical journal, 2012).

Assays:
[1] = molecular target: T1, PvENT4 (Plasmodium vivax, UniProt A5K9X9); assay type: cell-based; settings: 60 min; for Uptake of radiolabeled substrate relative to H2O-injected oocytes: 1.5 μM radiolabeled compound; for Saturability of concentration-dependent uptake (Michaelis-Menten): concentrations up to 10 mM
[2] = molecular target: T2, PfENT4 (Plasmodium falciparum, UniProt Q8I2A8); test: cell-based
[3] = molecular target: T1, PvENT4; test: cell-based
[4] = molecular target: T2, PfENT4; assay type: cell-based; settings: 60 min; for Uptake of radiolabeled substrate relative to H2O-injected oocytes: 1.5 μM radiolabeled compound; for Saturability of concentration-dependent uptake (Michaelis-Menten): concentrations up to 10 mM
[5] = test system: P. falciparum parasites; settings: read-out: IC50, in vitro growth; P. falciparum FCR-3 strain parasites; cited from earlier work
[6] = test system: PfENT1; settings: cited from earlier work
[7] = test system: P. falciparum phosphodiesterase-1; settings: cited from earlier work
[8] = read-out: Inhibition of adenine uptake

In the case of `O=c1cc[nH]c(=O)[nH]1` [uracil], the “Uptake of radiolabeled substrate relative to H2O-injected oocytes” value [1] is reported as “less accumulation”.

With `C/C(=C\CNc1ncnc2[nH]cnc12)CO` [trans-zeatin] the Ki [2] was 20 ± 3 µM and the Ki [3] was 193 ± 21 µM.

For `Cc1cn([C@H]2C[C@H](O)[C@@H](CO)O2)c(=O)[nH]c1=O` [thymidine], the “Uptake of radiolabeled substrate relative to H2O-injected oocytes” value [1] was “displayed uptake” and the “Uptake of radiolabeled substrate relative to H2O-injected oocytes” value [4] was “displayed uptake”.

For `CC(C)=CCNc1ncnc2nc[nH]c12` [isopentenyl adenine], the IC50 [5] is listed as 8.34 µM.

For `O=c1[nH]c(=O)c2[nH]c(=O)[nH]c2[nH]1` [urate], the “Competition for adenine transport” value ([2]; PfENT4 oocytes, 150 nM [3H]adenine, 60 min, compound 500 μM) was “did not compete” and the “Competition for adenine transport” value ([3]; PvENT4 oocytes, 150 nM [3H]adenine, 60 min, compound 500 μM) was “did not compete”.

With `Nc1ncnc2[nH]cnc12` [adenine] the Ki [2] was 7 ± 2 µM, the “Uptake of radiolabeled substrate relative to H2O-injected oocytes” value [1] was “greater uptake” and the “Saturability of concentration-dependent uptake (Michaelis-Menten)” value (shortened to “Saturability”) ([1]; PvENT4 oocytes) was “not saturable”. The Ki [3] was 6 ± 2 µM, the “Uptake of radiolabeled substrate relative to H2O-injected oocytes” value [4] was “greater uptake” and the “Saturability” value ([4]; PfENT4 oocytes) was “not saturable”.

With `Cc1c[nH]c(=O)[nH]c1=O` [thymine] the “Uptake of radiolabeled substrate relative to H2O-injected oocytes” value [1] was “less accumulation”.

For `Nc1ncnc2c1ncn2[C@@H]1O[C@H](COP(=O)(O)O)[C@@H](O)[C@H]1O` [AMP, adenosine monophosphate], the “Transport of radiolabeled substrate” value ([1]; PvENT4 oocytes, 1.5 μM, in presence of 250 μM α,β-methyleneADP) is listed as “not observed”, the “Transport of radiolabeled substrate” value ([4]; PfENT4 oocytes, 1.5 μM, in presence of 250 μM α,β-methyleneADP) is listed as “not observed” and the “Substrate of PfENT1” value [6] is listed as “not substrates”.

For `O=c1[nH]cnc2nc[nH]c12` [hypoxanthine], the “Inhibition of adenine uptake” value ([2]; PfENT4 oocytes, 150 nM [3H]adenine, 60 min, concentration shown only in Figure 9) was “did not inhibit”, the “Uptake of radiolabeled substrate relative to H2O-injected oocytes” value [1] was “no observed uptake” and the “Inhibition of adenine uptake” value ([3]; PvENT4 oocytes, 150 nM [3H]adenine, 60 min, concentration shown only in Figure 9) was “did not inhibit”. For the same compound, the “Uptake of radiolabeled substrate relative to H2O-injected oocytes” value [4] was “no observed uptake”.

For `Nc1nc2c(ncn2[C@H]2C[C@H](O)[C@@H](CO)O2)c(=O)[nH]1` [2′-deoxyguanosine], the “Uptake of radiolabeled substrate relative to H2O-injected oocytes” value [1] was “greater uptake” and the “Uptake of radiolabeled substrate relative to H2O-injected oocytes” value [4] was “greater uptake”.

For `O=c1[nH]cnc2c1ncn2[C@@H]1O[C@H](CO)[C@@H](O)[C@H]1O` [inosine], the “Uptake of radiolabeled substrate relative to H2O-injected oocytes” value [1] was “greater uptake” and the “Uptake of radiolabeled substrate relative to H2O-injected oocytes” value [4] was “greater uptake”.

For `Nc1ncnc2c1ncn2[C@H]1C[C@H](O)[C@@H](CO)O1` [2′-deoxyadenosine], the “Uptake of radiolabeled substrate relative to H2O-injected oocytes” value [1] was “greater uptake” and the “Uptake of radiolabeled substrate relative to H2O-injected oocytes” value [4] was “greater uptake”.

For `O=c1[nH]cnc2c([C@@H]3N[C@H](CO)[C@@H](O)[C@H]3O)c[nH]c12` [Immucillin-H], the “Inhibition of [3H]adenine uptake at 7 mM compared with 2 mM” value ([2]; PfENT4 oocytes, 150 nM [3H]adenine, 60 min) was “significantly greater inhibition”.

In the case of `Nc1ncnc2c1ncn2[C@@H]1O[C@H](CO)[C@@H](O)[C@H]1O` [adenosine], the “Uptake of radiolabeled substrate relative to H2O-injected oocytes” value [1] is reported as “greater uptake”, the “Saturability” value ([1]; PvENT4 oocytes) is reported as “not saturable” and the “Uptake of radiolabeled substrate relative to H2O-injected oocytes” value [4] is reported as “greater uptake”. The “Saturability” value ([4]; PfENT4 oocytes) was “not saturable”.

For `O=[N+]([O-])c1ccc(CSc2ncnc3c2ncn3[C@@H]2O[C@H](CO)[C@@H](O)[C@H]2O)cc1` [NBMPR, nitrobenzylmercaptopurineriboside], the “Inhibition of adenine uptake” value ([2]; PfENT4 oocytes, 150 nM [3H]adenine, 60 min, compound 10 μM) was “insensitive” and the “Inhibition of adenine uptake” value ([3]; PvENT4 oocytes, 150 nM [3H]adenine, 60 min, compound 10 μM) was “insensitive”.

In the case of `OCCN(CCO)c1nc(N2CCCCC2)c2nc(N(CCO)CCO)nc(N3CCCCC3)c2n1` [dipyridamole], the inhibition at 10 µM [2, 8] is given as about 80%, the inhibition at 10 µM [3, 8] is given as about 80% and the “Inhibition of recombinant P. falciparum phosphodiesterase-1” value [7] is given as “inhibits”. The “Sensitivity of PfENT1 to inhibitor” value [6] was “insensitive”.
